Patent publication US10266513B2 (Pfizer Inc., priority 2012, dated 2019)

Each molecule was assayed against human full-length BTK Kinase (Homo sapiens (Human), UniProt Q06187) (assay: Human BTK LanthaScreen Assay (TR-FRET)). Settings: 50 μM ATP, FAM-Srctide peptide substrate, read-out: BTK Inhibition IC50.
Format: biochemical
Source text: Human BTK LanthaScreen Assay

human full-length BTK Kinase, sequence (Q06187 whole entry): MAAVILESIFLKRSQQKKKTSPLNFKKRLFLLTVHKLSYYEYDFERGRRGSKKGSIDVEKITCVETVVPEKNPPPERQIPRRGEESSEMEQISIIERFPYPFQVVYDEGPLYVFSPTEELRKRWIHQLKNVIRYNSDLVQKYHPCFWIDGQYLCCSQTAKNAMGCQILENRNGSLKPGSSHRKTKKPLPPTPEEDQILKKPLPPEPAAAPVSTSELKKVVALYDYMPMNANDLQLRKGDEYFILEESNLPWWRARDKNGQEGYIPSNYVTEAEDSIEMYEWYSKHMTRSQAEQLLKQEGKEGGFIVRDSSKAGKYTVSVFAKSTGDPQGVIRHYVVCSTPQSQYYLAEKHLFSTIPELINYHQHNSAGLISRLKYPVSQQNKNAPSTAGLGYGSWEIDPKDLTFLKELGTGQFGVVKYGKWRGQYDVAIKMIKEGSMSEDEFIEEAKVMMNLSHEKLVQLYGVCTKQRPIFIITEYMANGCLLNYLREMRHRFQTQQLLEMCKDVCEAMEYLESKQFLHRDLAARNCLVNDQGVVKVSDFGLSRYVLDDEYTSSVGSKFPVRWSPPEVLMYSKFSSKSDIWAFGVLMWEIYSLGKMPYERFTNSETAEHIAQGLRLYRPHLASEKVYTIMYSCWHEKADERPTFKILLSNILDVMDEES

Compound	IC50 [nM]
N#CN1CCCC(n2nc(-c3ccc(Oc4cc(F)c(F)cc4F)cc3)c(C(N)=O)c2N)C1 (centres unmarked) [Example 59, 5-amino-1-(1-cyanopiperidin-3-yl)-3-[4-(2,4,5-trifluorophenoxy)phenyl]-1H-pyrazole-4-carboxamide]	8.5
N#CN1CCCC(n2nc(-c3ccc(Oc4cc(Cl)cc(Cl)c4)cc3)c(C(N)=O)c2N)C1 (centres unmarked) [Example 60, 5-amino-1-(1-cyanopiperidin-3-yl)-3-[4-(3,5-dichlorophenoxy)phenyl]-1H-pyrazole-4-carboxamide]	4.8
N#CN1CCCC(n2nc(-c3ccc(Oc4ccc(F)c(F)c4F)cc3)c(C(N)=O)c2N)C1 (centres unmarked) [Example 61, 5-amino-1-(1-cyanopiperidin-3-yl)-3-[4-(2,3,4-trifluorophenoxy)phenyl]-1H-pyrazole-4-carboxamide]	5.1
N#CN1CCCC(n2nc(-c3ccc(Oc4ccccc4OC(F)(F)F)cc3)c(C(N)=O)c2N)C1 (centres unmarked) [Example 62, 5-amino-1-(1-cyanopiperidin-3-yl)-3-{4-[2-(trifluoromethoxy)phenoxy]phenyl}-1H-pyrazole-4-carboxamide]	3.3
N#CN1CCCC(n2nc(-c3ccc(Oc4c(F)cccc4Cl)cc3)c(C(N)=O)c2N)C1 (centres unmarked) [Example 63, 5-amino-3-[4-(2-chloro-6-fluoro-phenoxy)phenyl]-1-(1-cyanopiperidin-3-yl)-1H-pyrazole-4-carboxamide]	4.9
N#CN1CCCC(n2nc(-c3ccc(Oc4ccc(F)c(C(F)(F)F)c4)cc3)c(C(N)=O)c2N)C1 (centres unmarked) [Example 64, 5-amino-1-(1-cyanopiperidin-3-yl)-3-{4-[4-fluoro-3-(trifluoromethyl)phenoxy]phenyl}-1H-pyrazole-4-carboxamide]	8.7
COc1ccccc1Oc1ccc(-c2nn(C3CCCN(C#N)C3)c(N)c2C(N)=O)cc1 (centres unmarked) [Example 65, 5-amino-1-(1-cyanopiperidin-3-yl)-3-[4-(2-methoxyphenoxy)phenyl]-1H-pyrazole-4-carboxamide]	10.6
N#CN1CCCC(n2nc(-c3ccc(Oc4cc(F)cc(F)c4)cc3)c(C(N)=O)c2N)C1 (centres unmarked) [Example 66, 5-amino-1-(1-cyanopiperidin-3-yl)-3-[4-(3,5-difluorophenoxy)phenyl]-1H-pyrazole-4-carboxamide]	7.2
N#CN1CCCC(n2nc(-c3ccc(Cc4ccccc4)cc3)c(C(N)=O)c2N)C1 (centres unmarked) [Example 67]	2.4
Cc1cccc(Cc2ccc(-c3nn(C4CCCN(C#N)C4)c(N)c3C(N)=O)cc2)c1 (centres unmarked) [Example 68, 5-amino-1-(1-cyanopiperidin-3-yl)-3-[4-(3-methylbenzyl)phenyl]-1H-pyrazole-4-carboxamide]	1.9
Cc1cccc(Cc2ccc(-c3nn([C@@H]4CCCN(C#N)C4)c(N)c3C(N)=O)cc2)c1 [Example 69, (R)-5-amino-1-(1-cyanopiperidin-3-yl)-3-(4-(3-methylbenzyl)phenyl)-1H-pyrazole-4-carboxamide]	0.6
Cc1cccc(Cc2ccc(-c3nn([C@H]4CCCN(C#N)C4)c(N)c3C(N)=O)cc2)c1 [Example 70, (S)-5-amino-1-(1-cyanopiperidin-3-yl)-3-(4-(3-methylbenzyl)phenyl)-1H-pyrazole-4-carboxamide]	21.9
N#CN1CCCC(n2nc(-c3ccc(Cc4ccccc4Cl)cc3)c(C(N)=O)c2N)C1 (centres unmarked) [Example 71, 5-amino-3-(4-(2-chlorobenzyl)phenyl)-1-(1-cyanopiperidin-3-yl)-1H-pyrazole-4-carboxamide]	2.7
N#CN1CCC[C@@H](n2nc(-c3ccc(Cc4ccccc4Cl)cc3)c(C(N)=O)c2N)C1 [Example 72, (R)-5-amino-3-(4-(2-chlorobenzyl)phenyl)-1-(1-cyanopiperidin-3-yl)-1H-pyrazole-4-carboxamide]	0.54
N#CN1CCC[C@H](n2nc(-c3ccc(Cc4ccccc4Cl)cc3)c(C(N)=O)c2N)C1 [Example 73, (S)-5-amino-3-(4-(2-chlorobenzyl)phenyl)-1-(1-cyanopiperidin-3-yl)-1H-pyrazole-4-carboxamide]	6.1
N#CN1CCCC(n2nc(-c3ccc(Cc4ccccc4F)cc3)c(C(N)=O)c2N)C1 (centres unmarked) [Example 74, 5-amino-1-(1-cyanopiperidn-3-yl)-3-[4-(2-fluorobenzyl)phenyl]-1H-pyrazole-4-carboxamide]	1
N#CN1CCC[C@H](n2nc(-c3ccc(Cc4ccccc4F)cc3)c(C(N)=O)c2N)C1 [Example 76, (S)-5-amino-1-(1-cyanopiperidin-3-yl)-3-(4-(2-fluorobenzyl)phenyl)-1H-pyrazole-4-carboxamide]	12
N#CN1CCCC(n2nc(-c3ccc(Cc4cccc(F)c4)cc3)c(C(N)=O)c2N)C1 (centres unmarked) [Example 77, 5-amino-1-(1-cyanopiperidin-3-yl)-3-[4-(3-fluorobenzyl)phenyl]-1H-pyrazole-4-carboxamide]	2.3
N#CN1CCCC(n2nc(-c3ccc(Cc4ccc(F)cc4F)cc3)c(C(N)=O)c2N)C1 (centres unmarked) [Example 80, 5-amino-1-(1-cyanopiperidin-3-yl)-3-[4-(2,4-difluorobenzyl)phenyl]-1H-pyrazole-4-carboxamide]	15.6

Compound	IC50 [nM]
N#CN1CCCC(n2nc(-c3ccc(Cc4ccc(F)c(F)c4)cc3)c(C(N)=O)c2N)C1 (centres unmarked) [Example 83, 5-amino-1-(1-cyanopiperidin-3-yl)-3-[4-(3,4-difluorobenzyl)phenyl]-1H-pyrazole-4-carboxamide]	15.3
N#CN1CCCC(n2nc(-c3ccc(Cc4ccc(Cl)cc4)cc3)c(C(N)=O)c2N)C1 (centres unmarked) [Example 86, 5-amino-3-[4-(4-chlorobenzyl)phenyl]-(1-cyanopiperidin-3-yl)-1H-pyrazole-4-carboxamide]	26.8
N#CN1CCCC(n2nc(-c3ccc(C(=O)c4ccccc4)cc3)c(C(N)=O)c2N)C1 (centres unmarked) [Example 87, 5-Amino-3-(4-benzoyl-phenyl)-1-(1-cyano)-piperidin-3-yl-1H-pyrazole-4-carboxylic acid amide]	1.3
N#CN1CCCC(n2nc(-c3ccc(C(O)c4ccccc4)cc3)c(C(N)=O)c2N)C1 (centres unmarked) [Example 88, 5-amino-1-(1-cyanopiperidin-3-yl)-3-{4-[hydroxy(phenyl)methyl]phenyl}-1H-pyrazole-4-carboxamide]	5.7
N#CN1CCCC(n2nc(-c3cccc(Oc4ccccc4)c3)c(C(N)=O)c2N)C1 (centres unmarked) [Example 89, 5-amino-1-(1-cyanopiperidin-3-yl)-3-(3-phenoxyphenyl)-1H-pyrazole-4-carboxamide]	7.7
N#CN1CCCC(n2nc(-c3cccc(Cc4ccc(Cl)cc4)c3)c(C(N)=O)c2N)C1 (centres unmarked) [Example 92, 5-amino-3-[3-(4-chlorobenzyl)phenyl]-1-(1-cyanopiperidin-3-yl)-1H-pyrazole-4-carboxamide]	73.4
N#CN1CCCC(n2nc(-c3cccc(Cc4ccc(F)cc4)c3)c(C(N)=O)c2N)C1 (centres unmarked) [Example 93, 5-amino-1-(1-cyanopiperidin-3-yl)-3-[3-(4-fluorobenzyl)phenyl]-1H-pyrazole-4-carboxamide]	35
N#CN1CCCC(n2nc(-c3cccc(Oc4ccc(F)cc4)c3)c(C(N)=O)c2N)C1 (centres unmarked) [Example 94, 5-Amino-1-(1-cyanopiperidin-3-yl)-3-(3-(4-fluorophenoxy)phenyl)-1H-pyrazole-4-carboxamide]	50.2
N#CN1CCCC(n2nc(-c3cccc(Oc4ccc(OC(F)(F)F)cc4)c3)c(C(N)=O)c2N)C1 (centres unmarked) [Example 95, 5-Amino-1-(1-cyanopiperidin-3-yl)-3-{3-[4-(trifluoromethoxy)phenoxy]phenyl}-1H-pyrazole-4-carboxamide]	79.2
Cc1ccc(Oc2cccc(-c3nn(C4CCCN(C#N)C4)c(N)c3C(N)=O)c2)cc1F (centres unmarked) [Example 96, 5-amino-1-(1-cyanopiperidin-3-yl)-3-[3-(3-fluoro-4-methylphenoxy)phenyl]-1H-pyrazole-4-carboxamide]	21.9
CC(C)c1ccccc1Oc1cccc(-c2nn(C3CCCN(C#N)C3)c(N)c2C(N)=O)c1 (centres unmarked) [Example 97, 5-amino-1-(1-cyanopiperidin-3-yl)-3-[3-(2-isopropylphenoxy)phenyl]-1H-pyrazole-4-carboxamide]	52.8
Cc1ccc(Oc2cccc(-c3nn(C4CCCN(C#N)C4)c(N)c3C(N)=O)c2)cc1 (centres unmarked) [Example 98, 5-amino-1-(1-cyanopiperidin-3-yl)-3-[3-(4-methylphenoxy)phenyl]-1H-pyrazole-4-carboxamide]	27.3
Cc1cc(Oc2cccc(-c3nn(C4CCCN(C#N)C4)c(N)c3C(N)=O)c2)ccc1Cl (centres unmarked) [Example 99, 5-amino-3-[3-(4-chloro-3-methylphenoxy)-phenyl]-1-(1-cyanopiperidin-3-yl)-1H-pyrazole-4-carboxamide]	15.6
CC(C)c1ccc(Oc2cccc(-c3nn(C4CCCN(C#N)C4)c(N)c3C(N)=O)c2)cc1 (centres unmarked) [Example 100, 5-amino-1-(1-cyanopiperidin-3-yl)-3-[3-(4-isopropylphenoxy)phenyl]-1H-pyrazole-4-carboxamide]	16.3
Cc1cc(Oc2cccc(-c3nn(C4CCCN(C#N)C4)c(N)c3C(N)=O)c2)ccc1C(C)C (centres unmarked) [Example 101, 5-amino-1-(1-cyanopiperidin-3-yl)-3-[3-(4-isopropyl-3-methylphenoxy)phenyl]-1H-pyrazole-4-carboxamide]	5.3
N#CN1CCCC(n2nc(-c3cccc(Oc4ccc(F)c(F)c4)c3)c(C(N)=O)c2N)C1 (centres unmarked) [Example 105, 5-amino-1-(1-cyanopiperidin-3-yl)-3-[3-(3,4-difluorophenoxy)phenyl]-1H-pyrazole-4-carboxamide]	55.5
N#CN1CCCC(n2nc(-c3cccc(Oc4ccc(OC(F)(F)F)c(F)c4)c3)c(C(N)=O)c2N)C1 (centres unmarked) [Example 106, 5-amino-1-(1-cyanopiperidin-3-yl)-3-{3-[3-fluoro-4-(trifluoromethoxy)phenoxy]phenyl}-1H-pyrazole-4-carboxamide]	58
N#CN1CCCC(n2nc(-c3ccc(Oc4ccccc4)nc3)c(C(N)=O)c2N)C1 (centres unmarked) [Example 107, 5-amino-1-(1-cyanopiperidin-3-yl)-3-(6-phenoxypyridin-3-yl)-1H-pyrazole-4-carboxamide]	171
N#CN1CCCC(n2nc(-c3ccc(Oc4ccc(Cl)cn4)cc3)c(C(N)=O)c2N)C1 (centres unmarked) [Example 108, 5-amino-3-(4-((5-chloropyridin-2-yl)oxy)phenyl)-1-(1-cyanopiperidin-3-yl)-1H-pyrazole-4-carboxamide]	7.8
